Assays:
[1] = target: RAC-alpha serine/threonine-protein kinase (Homo sapiens) (UniProt P31749); assay: Inhibition of AKT1 at 10 uM after 60 mins by TR-FRET assay
[2] = target: PI3-kinase p110-alpha/p85-alpha (Homo sapiens) (UniProt P27986+P42336); assay: Inhibition of p110alpha/p85alpha at 10 uM after 60 mins by TR-FRET assay; type: protein-complex assay
[3] = target: T1, Aurora kinase A (Homo sapiens) (UniProt O14965); assay: Inhibition of Aurora A at 10 uM after 60 mins by TR-FRET assay
T1 sequence (whole entry): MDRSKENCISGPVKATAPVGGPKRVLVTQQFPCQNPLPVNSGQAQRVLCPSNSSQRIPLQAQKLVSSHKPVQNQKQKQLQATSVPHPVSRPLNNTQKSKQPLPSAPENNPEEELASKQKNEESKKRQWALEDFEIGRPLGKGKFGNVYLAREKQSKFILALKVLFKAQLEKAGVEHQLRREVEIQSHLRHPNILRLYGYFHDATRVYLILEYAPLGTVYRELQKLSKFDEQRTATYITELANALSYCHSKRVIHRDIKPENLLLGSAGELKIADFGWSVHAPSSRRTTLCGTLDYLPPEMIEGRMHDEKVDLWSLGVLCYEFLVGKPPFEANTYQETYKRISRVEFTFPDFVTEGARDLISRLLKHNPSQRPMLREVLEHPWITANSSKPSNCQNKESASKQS

[4] = target: T2, Mitogen-activated protein kinase 1 (Homo sapiens, UniProt P28482); assay: Inhibition of MAPK1 at 10 uM after 60 mins by TR-FRET assay
[5] = target: Macrophage colony-stimulating factor 1 receptor (Homo sapiens) (UniProt P07333); assay: Inhibition of CSF1R at 10 uM after 60 mins by TR-FRET assay
[6] = target: T2, Mitogen-activated protein kinase 1; assay: Inhibition of recombinant ERK2 after 60 mins by TR-FRET assay
[7] = target: Serine/threonine-protein kinase PLK1 (Homo sapiens) (UniProt P53350); assay: Inhibition of PLK1 at 10 uM after 60 mins by TR-FRET assay
Sequence of Serine/threonine-protein kinase PLK1 (Homo sapiens) (P53350 whole entry): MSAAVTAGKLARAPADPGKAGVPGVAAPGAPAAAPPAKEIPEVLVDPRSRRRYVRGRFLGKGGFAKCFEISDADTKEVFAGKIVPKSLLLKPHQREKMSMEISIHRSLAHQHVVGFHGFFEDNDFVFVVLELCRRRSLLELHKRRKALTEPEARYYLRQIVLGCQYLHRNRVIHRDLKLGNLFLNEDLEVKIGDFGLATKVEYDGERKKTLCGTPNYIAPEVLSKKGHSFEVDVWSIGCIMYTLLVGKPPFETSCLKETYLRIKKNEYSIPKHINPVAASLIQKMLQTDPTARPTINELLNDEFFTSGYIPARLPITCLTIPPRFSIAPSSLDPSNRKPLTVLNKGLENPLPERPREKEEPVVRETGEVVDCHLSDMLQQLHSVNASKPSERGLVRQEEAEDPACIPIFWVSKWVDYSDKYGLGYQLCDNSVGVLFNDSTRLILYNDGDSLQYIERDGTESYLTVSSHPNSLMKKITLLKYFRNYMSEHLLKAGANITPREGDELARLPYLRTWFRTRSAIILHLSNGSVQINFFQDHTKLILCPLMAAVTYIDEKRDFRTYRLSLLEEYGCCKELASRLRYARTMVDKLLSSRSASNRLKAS

[8] = target: Cyclin-dependent kinase 1/cyclin B (Homo sapiens) (UniProt P06493+P14635+Q8WWL7+O95067); assay: Inhibition of CDK1/cyclin B at 10 uM after 60 mins by TR-FRET assay; type: protein-complex assay
[9] = target: Serine/threonine-protein kinase PLK2 (Homo sapiens) (UniProt Q9NYY3); assay: Inhibition of PLK2 at 10 uM after 60 mins by TR-FRET assay
[10] = target: Insulin receptor (Homo sapiens) (UniProt P06213); assay: Inhibition of INSR at 10 uM after 60 mins by TR-FRET assay
Sequence of Insulin receptor (Homo sapiens) (P06213 28-758 limits assumed): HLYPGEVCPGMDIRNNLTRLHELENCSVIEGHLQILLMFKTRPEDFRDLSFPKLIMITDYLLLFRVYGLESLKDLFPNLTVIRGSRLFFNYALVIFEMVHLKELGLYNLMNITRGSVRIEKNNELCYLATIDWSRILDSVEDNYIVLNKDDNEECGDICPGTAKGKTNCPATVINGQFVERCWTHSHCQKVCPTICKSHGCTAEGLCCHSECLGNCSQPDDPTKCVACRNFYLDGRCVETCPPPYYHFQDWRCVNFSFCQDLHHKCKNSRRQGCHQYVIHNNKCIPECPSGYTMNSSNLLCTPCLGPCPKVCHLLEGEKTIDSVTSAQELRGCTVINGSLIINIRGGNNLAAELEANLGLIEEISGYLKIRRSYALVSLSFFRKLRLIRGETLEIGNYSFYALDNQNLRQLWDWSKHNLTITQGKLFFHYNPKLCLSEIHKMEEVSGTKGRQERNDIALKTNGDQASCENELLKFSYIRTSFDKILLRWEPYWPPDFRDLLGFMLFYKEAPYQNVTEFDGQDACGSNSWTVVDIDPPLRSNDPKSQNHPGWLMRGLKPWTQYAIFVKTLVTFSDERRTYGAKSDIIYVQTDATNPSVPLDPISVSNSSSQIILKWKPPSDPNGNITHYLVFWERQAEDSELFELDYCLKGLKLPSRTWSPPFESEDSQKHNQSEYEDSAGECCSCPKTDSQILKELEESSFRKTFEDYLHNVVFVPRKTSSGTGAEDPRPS
Sequence of Insulin receptor (Homo sapiens) (P06213 763-1382 limits assumed): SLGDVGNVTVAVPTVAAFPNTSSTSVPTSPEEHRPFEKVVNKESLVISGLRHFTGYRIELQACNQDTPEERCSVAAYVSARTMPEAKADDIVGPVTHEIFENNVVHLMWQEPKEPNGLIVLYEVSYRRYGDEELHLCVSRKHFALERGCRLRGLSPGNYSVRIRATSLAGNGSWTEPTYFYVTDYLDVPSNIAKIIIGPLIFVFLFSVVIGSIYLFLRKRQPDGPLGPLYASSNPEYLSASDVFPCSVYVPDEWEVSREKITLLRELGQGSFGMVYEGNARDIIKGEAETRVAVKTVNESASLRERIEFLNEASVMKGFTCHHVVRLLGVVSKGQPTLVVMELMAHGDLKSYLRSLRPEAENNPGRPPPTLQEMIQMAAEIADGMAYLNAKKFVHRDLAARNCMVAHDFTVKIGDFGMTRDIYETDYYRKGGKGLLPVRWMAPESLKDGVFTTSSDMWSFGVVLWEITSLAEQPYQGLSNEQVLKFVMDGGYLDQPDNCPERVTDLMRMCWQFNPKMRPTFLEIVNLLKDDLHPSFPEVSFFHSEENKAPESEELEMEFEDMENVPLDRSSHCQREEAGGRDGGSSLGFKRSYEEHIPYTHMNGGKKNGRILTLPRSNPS

[11] = target: Cyclin-dependent kinase 5/CDK5 activator 1 (Homo sapiens) (UniProt Q00535+Q15078); assay: Inhibition of CDK5/p25 at 10 uM after 60 mins by TR-FRET assay; type: protein-complex assay
[12] = target: Mitogen-activated protein kinase 9 (Homo sapiens, UniProt P45984); assay: Inhibition of recombinant JNK2 after 60 mins by TR-FRET assay
[13] = target: Protein kinase C beta type (Homo sapiens) (UniProt P05771); assay: Inhibition of PRKCB1 at 10 uM after 60 mins by TR-FRET assay
[14] = target: Tyrosine-protein kinase ABL1 (Homo sapiens) (UniProt P00519); assay: Inhibition of ABL1 at 10 uM after 60 mins by TR-FRET assay
[15] = target: Mitogen-activated protein kinase 10 (Homo sapiens, UniProt P53779); assay: Inhibition of MAPK10 at 10 uM after 60 mins by TR-FRET assay
[16] = target: Rho-associated protein kinase 2 (Homo sapiens) (UniProt O75116); assay: Inhibition of ROCK2 at 10 uM after 60 mins by TR-FRET assay
[17] = target: Dual specificity protein kinase CLK1 (Homo sapiens) (UniProt P49759); assay: Inhibition of CLK1 at 10 uM after 60 mins by TR-FRET assay
Sequence of Dual specificity protein kinase CLK1 (Homo sapiens) (P49759 whole entry, looked up): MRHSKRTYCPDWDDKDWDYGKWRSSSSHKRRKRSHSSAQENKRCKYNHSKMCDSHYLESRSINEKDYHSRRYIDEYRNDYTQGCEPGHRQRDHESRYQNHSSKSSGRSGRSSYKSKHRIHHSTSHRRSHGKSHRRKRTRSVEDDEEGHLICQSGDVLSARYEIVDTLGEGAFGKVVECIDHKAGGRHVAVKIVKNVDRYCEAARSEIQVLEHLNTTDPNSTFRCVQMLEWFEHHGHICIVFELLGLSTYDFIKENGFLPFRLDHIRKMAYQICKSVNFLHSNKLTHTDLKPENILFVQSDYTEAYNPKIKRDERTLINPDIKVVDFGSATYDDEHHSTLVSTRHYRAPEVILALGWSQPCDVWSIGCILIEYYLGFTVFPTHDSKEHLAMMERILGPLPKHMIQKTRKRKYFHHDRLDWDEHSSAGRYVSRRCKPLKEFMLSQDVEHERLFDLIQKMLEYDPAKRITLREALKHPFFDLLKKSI

[18] = target: Receptor-interacting serine/threonine-protein kinase 2 (Homo sapiens) (UniProt O43353); assay: Inhibition of RIPK2 at 10 uM after 60 mins by TR-FRET assay
Sequence of Receptor-interacting serine/threonine-protein kinase 2 (Homo sapiens) (O43353 whole entry): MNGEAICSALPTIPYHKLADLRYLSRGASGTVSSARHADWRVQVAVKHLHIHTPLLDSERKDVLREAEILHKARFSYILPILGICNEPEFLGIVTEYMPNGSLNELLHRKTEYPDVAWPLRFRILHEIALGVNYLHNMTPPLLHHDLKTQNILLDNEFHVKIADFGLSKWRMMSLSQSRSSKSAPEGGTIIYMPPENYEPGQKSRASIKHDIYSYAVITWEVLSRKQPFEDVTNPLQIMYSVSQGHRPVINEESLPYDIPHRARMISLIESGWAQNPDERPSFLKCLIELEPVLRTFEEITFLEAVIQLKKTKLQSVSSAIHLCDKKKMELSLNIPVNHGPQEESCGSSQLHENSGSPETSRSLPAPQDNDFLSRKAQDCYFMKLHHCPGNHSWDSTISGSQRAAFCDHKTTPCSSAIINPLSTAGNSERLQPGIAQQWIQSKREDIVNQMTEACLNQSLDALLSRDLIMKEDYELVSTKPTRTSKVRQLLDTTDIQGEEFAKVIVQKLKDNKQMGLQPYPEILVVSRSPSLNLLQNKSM

[19] = target: Receptor tyrosine-protein kinase erbB-4 (Homo sapiens) (UniProt Q15303); assay: Inhibition of ERBB4 at 10 uM after 60 mins by TR-FRET assay
[20] = target: Platelet-derived growth factor receptor alpha (Homo sapiens) (UniProt P16234); assay: Inhibition of PDGFRA at 10 uM after 60 mins by TR-FRET assay
[21] = target: Protein-tyrosine kinase 2-beta (Homo sapiens) (UniProt Q14289); assay: Inhibition of PTK2B at 10 uM after 60 mins by TR-FRET assay
[22] = target: Serine/threonine-protein kinase MARK2 (Homo sapiens) (UniProt Q7KZI7); assay: Inhibition of MARK2 at 10 uM after 60 mins by TR-FRET assay
Sequence of Serine/threonine-protein kinase MARK2 (Homo sapiens) (Q7KZI7 whole entry): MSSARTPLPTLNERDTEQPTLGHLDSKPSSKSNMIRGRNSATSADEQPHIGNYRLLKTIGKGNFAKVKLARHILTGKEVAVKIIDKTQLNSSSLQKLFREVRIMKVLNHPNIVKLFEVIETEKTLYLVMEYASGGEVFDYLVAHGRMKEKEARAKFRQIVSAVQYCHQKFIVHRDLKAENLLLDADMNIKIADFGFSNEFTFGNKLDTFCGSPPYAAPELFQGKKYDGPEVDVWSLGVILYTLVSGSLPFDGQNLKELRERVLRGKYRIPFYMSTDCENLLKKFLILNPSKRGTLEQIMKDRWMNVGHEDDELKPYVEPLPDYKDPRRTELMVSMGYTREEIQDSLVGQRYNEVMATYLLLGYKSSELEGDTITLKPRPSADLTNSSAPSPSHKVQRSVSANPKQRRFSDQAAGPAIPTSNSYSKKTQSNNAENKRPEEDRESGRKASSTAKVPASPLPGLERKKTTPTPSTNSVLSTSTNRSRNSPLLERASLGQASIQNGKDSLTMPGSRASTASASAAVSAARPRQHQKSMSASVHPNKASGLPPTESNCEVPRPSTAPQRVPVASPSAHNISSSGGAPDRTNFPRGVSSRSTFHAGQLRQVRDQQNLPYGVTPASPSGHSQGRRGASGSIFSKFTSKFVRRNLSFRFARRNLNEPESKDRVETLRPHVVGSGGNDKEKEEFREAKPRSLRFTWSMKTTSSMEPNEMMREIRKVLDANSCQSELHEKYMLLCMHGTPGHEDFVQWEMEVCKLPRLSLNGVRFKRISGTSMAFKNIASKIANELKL

[23] = target: Calcium/calmodulin-dependent protein kinase type II subunit alpha (Homo sapiens) (UniProt Q9UQM7); assay: Inhibition of CAMK2A at 10 uM after 60 mins by TR-FRET assay
[24] = target: Dual specificity tyrosine-phosphorylation-regulated kinase 1B (Homo sapiens) (UniProt Q9Y463); assay: Inhibition of DYRK1B at 10 uM after 60 mins by TR-FRET assay
[25] = system: RAF proto-oncogene serine/threonine-protein kinase (Homo sapiens), P04049 [Y340D,Y341D]; assay: Inhibition of RAF1 Y340D, Y341D mutant at 10 uM after 60 mins by TR-FRET assay
Sequence of RAF proto-oncogene serine/threonine-protein kinase (Homo sapiens), P04049 [Y340D,Y341D] (P04049 whole entry Y340D/Y341D): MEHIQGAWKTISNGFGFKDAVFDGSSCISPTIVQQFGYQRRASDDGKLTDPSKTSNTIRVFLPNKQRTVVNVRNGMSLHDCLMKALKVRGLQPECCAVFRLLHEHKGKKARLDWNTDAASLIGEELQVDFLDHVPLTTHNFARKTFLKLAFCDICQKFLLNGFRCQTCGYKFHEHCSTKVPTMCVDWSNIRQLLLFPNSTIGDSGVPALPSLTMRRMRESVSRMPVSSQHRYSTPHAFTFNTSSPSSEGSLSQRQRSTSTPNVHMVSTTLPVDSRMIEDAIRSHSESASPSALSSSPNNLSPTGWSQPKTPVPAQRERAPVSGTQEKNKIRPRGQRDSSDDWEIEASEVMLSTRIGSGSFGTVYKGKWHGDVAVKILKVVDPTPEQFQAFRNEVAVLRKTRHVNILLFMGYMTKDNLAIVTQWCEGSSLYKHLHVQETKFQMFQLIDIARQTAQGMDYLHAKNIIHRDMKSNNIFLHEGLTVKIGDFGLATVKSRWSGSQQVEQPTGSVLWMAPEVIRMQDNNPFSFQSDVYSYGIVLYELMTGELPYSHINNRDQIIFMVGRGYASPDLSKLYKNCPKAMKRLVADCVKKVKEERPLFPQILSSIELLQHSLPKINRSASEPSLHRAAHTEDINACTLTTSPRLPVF

[26] = target: Mitogen-activated protein kinase 14 (Homo sapiens, UniProt Q16539); assay: Inhibition of recombinant p38alpha after 60 mins by TR-FRET assay
[27] = target: Serine/threonine-protein kinase PLK3 (Homo sapiens) (UniProt Q9H4B4); assay: Inhibition of PLK3 at 10 uM after 60 mins by TR-FRET assay
[28] = target: Mitogen-activated protein kinase 8 (Homo sapiens, UniProt P45983); assay: Inhibition of recombinant JNK1 after 60 mins by TR-FRET assay
Sequence of Mitogen-activated protein kinase 8 (P45983 whole entry): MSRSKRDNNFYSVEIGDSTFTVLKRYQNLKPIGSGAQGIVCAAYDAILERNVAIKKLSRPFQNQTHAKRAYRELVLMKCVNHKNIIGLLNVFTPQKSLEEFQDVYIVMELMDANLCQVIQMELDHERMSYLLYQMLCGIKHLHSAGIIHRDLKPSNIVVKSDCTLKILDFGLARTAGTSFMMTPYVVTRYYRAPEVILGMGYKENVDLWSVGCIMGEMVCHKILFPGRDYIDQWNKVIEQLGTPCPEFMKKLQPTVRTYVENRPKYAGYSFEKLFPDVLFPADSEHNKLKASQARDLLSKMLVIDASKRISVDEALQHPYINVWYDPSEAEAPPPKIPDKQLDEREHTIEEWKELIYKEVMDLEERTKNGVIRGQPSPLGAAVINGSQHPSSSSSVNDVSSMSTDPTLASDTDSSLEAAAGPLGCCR

[29] = target: Glycogen synthase kinase-3 beta (Homo sapiens) (UniProt P49841); assay: Inhibition of GSK3B at 10 uM after 60 mins by TR-FRET assay
[30] = target: Leucine-rich repeat serine/threonine-protein kinase 2 (Homo sapiens) (UniProt Q5S007); assay: Inhibition of LRRK2 at 10 uM after 60 mins by TR-FRET assay
[31] = target: Cyclin-dependent kinase 2/cyclin A (Homo sapiens) (UniProt P24941+P20248+P78396); assay: Inhibition of CDK2/cyclin A at 10 uM after 60 mins by TR-FRET assay; type: protein-complex assay
[32] = target: Receptor-type tyrosine-protein kinase FLT3 (Homo sapiens) (UniProt P36888); assay: Inhibition of FLT3 at 10 uM after 60 mins by TR-FRET assay

SMILES	inhibition [1] [%]	inhibition [2] [%]	inhibition [3] [%]	inhibition [4] [%]	inhibition [5] [%]	IC50 [6] [nM]	inhibition [7] [%]	inhibition [8] [%]	inhibition [9] [%]	inhibition [10] [%]	inhibition [11] [%]	IC50 [12] [nM]	inhibition [13] [%]	inhibition [14] [%]	inhibition [15] [%]	inhibition [16] [%]	inhibition [17] [%]	inhibition [18] [%]	inhibition [19] [%]	inhibition [20] [%]	also measured
O=c1n(Cc2ccncc2)nc(-c2ccnc(NC3CCCCC3)c2)n1-c1ccc2ccccc2c1	-2	6	-5	5	1	> 50000	2	8	0	2	-3	97	19	-2	76	6	3	8	-3	1	inhibition [21]: 6%; inhibition [22]: 0%; inhibition [23]: 2%; inhibition [24]: 18%; inhibition [25]: -2%; IC50 [26]: > 50000 nM; inhibition [27]: -5%; IC50 [28]: 700 nM; inhibition [29]: 13%; inhibition [30]: -9%; inhibition [31]: 3%; inhibition [32]: 20%
O=c1n(Cc2ccccn2)nc(-c2ccnc(NC3CCOCC3)c2)n1-c1ccc2ccccc2c1	-5	-5	2	-1	4	> 50000	10	2	5	7	0	93	7	1	72	5	2	1	-3	-10	inhibition [21]: -7%; inhibition [22]: -2%; inhibition [23]: 8%; inhibition [24]: 1%; inhibition [25]: 0%; IC50 [26]: > 50000 nM; inhibition [27]: 5%; IC50 [28]: 990 nM; inhibition [29]: 7%; inhibition [30]: 7%; inhibition [31]: -6%; inhibition [32]: 11%
O=c1[nH]nc(-c2ccnc(NC3CCOCC3)c2)n1-c1ccc2ccccc2c1	3	49	30	5	74	> 50000	19	10	33	8	24	250	11	5	73	10	6	6	3	1	inhibition [21]: 2%; inhibition [22]: 4%; inhibition [23]: 11%; inhibition [24]: 22%; inhibition [25]: 16%; IC50 [26]: > 50000 nM; inhibition [27]: 13%; IC50 [28]: 1800 nM; inhibition [29]: 73%; inhibition [30]: 25%; inhibition [31]: 35%; inhibition [32]: 32%
O=c1[nH]nc(-c2ccnc(NC3CCCCC3)c2)n1-c1ccc2ccccc2c1	-1	29	17	1	-1	> 50000	12	5	15	5	8	69	2	4	72	15	7	6	2	1	inhibition [21]: -3%; inhibition [22]: 1%; inhibition [23]: 22%; inhibition [24]: 20%; inhibition [25]: 13%; IC50 [26]: > 50000 nM; inhibition [27]: 17%; IC50 [28]: 1000 nM; inhibition [29]: 38%; inhibition [30]: 11%; inhibition [31]: 2%; inhibition [32]: 12%
